Data from patent publication US20250367308A1, “LIGAND-DRUG CONJUGATE OF CAMPTOTHECIN ANALOGS, INTERMEDIATES, PREPARATION METHOD THEREFOR, PHARMACEUTICAL COMPOSITION AND APPLICATION THEREOF” (SHANGHAI MICURX PHARMACEUTICAL CO.,LTD., priority 2022, published 2025).

Test system: Human lung adenocarcinoma cell line A549
Assay: In vitro cytotoxicity test of camptothecin payloads (CellTiter-Glo)
Format: cell-based
Settings: Homo sapiens, A549, 72 h, read-out: A549 Cytotoxicity IC50 (nM)
Description: Human lung adenocarcinoma cell line A549 was used to evaluate the cytotoxicity of small molecule fragment of the present invention. A549 cells were seeded to a 96-well plate at 2000 cells per well.

**Q.** Which IC50 does the source give for CC[C@@]1(O)C(=O)OCc2c1cc1n(c2=O)Cc2c-1nc1cc(F)c(C)cc1c2CN1CCC(O)CC1 [Example 16, (S)-4-ethyl-8-fluoro-4-hydroxy-11-((4-hydroxypiperidin-1-yl)methyl)-9-methyl-1H-pyrano[3′,4′:6,7] indolizino[1,2-b]quinoline-3,14(4H,12H)-dione] here?
**A.** 81 nM

**Q.** With CC[C@@]1(O)C(=O)OCc2c1cc1n(c2=O)Cc2c-1nc1cc(F)c(C)cc1c2CN1CC2C(C1CO)C2(C)C (stereo partly drawn) [Example 23, (4S)-4-ethyl-8-fluoro-4-hydroxy-11-((2-(hydroxymethyl)-6,6-dimethyl-3-azabicyclo[3.1.0]hexan-3-yl)methyl)-9-methyl-1H-pyrano[3′,4′:6,7] indolizino[1,2-b]quinoline-3,14(4H,12H)-dione] as the compound, how does the IC50 read?
**A.** 49 nM

**Q.** For CC[C@@]1(O)C(=O)OCc2c1cc1n(c2=O)Cc2c-1nc1cc(F)c(C)cc1c2CN1CCC(C(O)C(C)C)CC1 (stereo partly drawn) [Example 28, (4S)-4-ethyl-8-fluoro-4-hydroxy-11-((4-(1-hydroxy-2-methylpropyl)piperidin-1-yl)methyl)-9-methyl-1H-pyrano[3′,4′:6,7] indolizino[1,2-b]quinoline-3,14(4H,12H)-dione], which IC50 is on record?
**A.** 74.2 nM

**Q.** How did the IC50 turn out when CC[C@@]1(O)C(=O)OCc2c1cc1n(c2=O)Cc2c-1nc1cc3c(cc1c2CN1C[C@@H]2CCC[C@@H]2[C@H]1CO)OCCO3 [Example 45] was run?
**A.** 53 nM

**Q.** Which IC50 does the source give for CC[C@@]1(O)C(=O)OCc2c1cc1n(c2=O)Cc2c-1nc1cc(F)c(C)cc1c2CN1CC(O)C1 [Example 9, (S)-4-ethyl-8-fluoro-4-hydroxy-11-((3-hydroxyazetidin-1-yl)methyl)-9-methyl-1H-pyrano[3′,4′:6,7] indolizino[1,2-b]quinoline-3,14(4H,12H)-dione] here?
**A.** 550 nM

**Q.** Which IC50 does the source give for CC[C@@]1(O)C(=O)OCc2c1cc1n(c2=O)Cc2c-1nc1cc3c(cc1c2CN1CCC2(CC1)CC(O)C2)OCCO3 [Example 44] here?
**A.** 30 nM

**Q.** Which IC50 does the source give for CC[C@@]1(O)C(=O)OCc2c1cc1n(c2=O)Cc2c-1nc1cc(F)c(C)cc1c2CN1CCCCC1CO (stereo partly drawn) [Example 11, (4S)-4-ethyl-8-fluoro-4-hydroxy-11-((2-(hydroxymethyl)piperidin-1-yl)methyl)-9-methyl-1H-pyrano[3′,4′:6,7] indolizino[1,2-b]quinoline-3,14(4H,12H)-dione] here?
**A.** 60 nM

**Q.** Which IC50 does the source give for CC[C@@]1(O)C(=O)OCc2c1cc1n(c2=O)Cc2c-1nc1cc(F)c(C)cc1c2CN1CCC(C(O)C(F)(F)F)CC1 (stereo partly drawn) [Example 29, (4S)-4-ethyl-8-fluoro-4-hydroxy-9-methyl-11-((4-(2,2,2-trifluoro-1-hydroxyethyl)piperidin-1-yl)methyl)-1H-pyrano[3′,4′:6,7] indolizino[1,2-b]quinoline-3,14(4H,12H)-dione] here?
**A.** 29.8 nM

**Q.** Which IC50 does the source give for CC[C@@]1(O)C(=O)OCc2c1cc1n(c2=O)Cc2c-1nc1cc(F)c(C)cc1c2CN1CCCC(CO)C1 (stereo partly drawn) [Example 12, (4S)-4-ethyl-8-fluoro-4-hydroxy-11-((3-(hydroxymethyl)piperidin-1-yl)methyl)-9-methyl-1H-pyrano[3′,4′:6,7] indolizino[1,2-b]quinoline-3,14(4H,12H)-dione] here?
**A.** 90 nM

**Q.** How did the IC50 turn out when CC[C@@]1(O)C(=O)OCc2c1cc1n(c2=O)Cc2c-1nc1ccc(O)cc1c2CN1CCC([C@@H](C)O)CC1 [Example 38, (S)-4-ethyl-4,9-dihydroxy-11-((4-((R)-1-hydroxyethyl)piperidin-1-yl)methyl)-1,12-dihydro-14H-pyrano[3′,4′:6,7] indolizino[1,2-b]quinoline-3,14(4H)-dione] was run?
**A.** 1250 nM

Same assay, conditions: human, 3 days

**Q.** CC[C@@]1(O)C(=O)OCc2c1cc1n(c2=O)Cc2c-1nc1cc(F)c(C)cc1c2CN1CCCCC1CO (stereo partly drawn) [Example 11, (4S)-4-ethyl-8-fluoro-4-hydroxy-11-((2-(hydroxymethyl)piperidin-1-yl)methyl)-9-methyl-1H-pyrano[3′,4′:6,7] indolizino[1,2-b]quinoline-3,14(4H,12H)-dione] was tested. Which “relative A549 cytotoxic potency in words” value did it give?
**A.** less potent than Example 17

**Q.** With CC[C@@]1(O)C(=O)OCc2c1cc1n(c2=O)Cc2c-1nc1cc(F)c(C)cc1c2CN1CCCC(CO)C1 (stereo partly drawn) [Example 12, (4S)-4-ethyl-8-fluoro-4-hydroxy-11-((3-(hydroxymethyl)piperidin-1-yl)methyl)-9-methyl-1H-pyrano[3′,4′:6,7] indolizino[1,2-b]quinoline-3,14(4H,12H)-dione] as the compound, how does the “relative A549 cytotoxic potency in words” value read?
**A.** less potent than Example 17
